Drawing on patent publication US20200385371A1 (Propellon Therapeutics Inc., priority 2017, published 2020), this text covers IC50, EC50 and Kd for 13 molecules.

Assay [1] concerns the target T1, WDR5 (Homo sapiens, UniProt P61964). Kind of assay: Fluorescence Polarization (FP) binding assay. The method in brief:
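Displacement of fluorescein-labelled H3 (1-15) (30 nM, with 0.3 μM WDR5) or 9-Ala-FAM (20 nM, with 0.05 μM WDR5) in 80 mM sodium phosphate pH 6.5, 20 mM KCl, 0.008% Triton X-100. FP read at 485/528 nm (H3) or 480/540 nm (9-Ala-FAM); Kdisp from hyperbolic fit, mean of quadruplicates.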
Background: In fluorescence polarisation assays a small probe gives low polarisation when free and higher when bound to something large.

Assay [2] relates to MV4-11 cells. Kind of assay: Cell proliferation assay (ATPlite). Format: cell-based. The conditions noted are these: Homo sapiens, 120 h; MV4-11 cells, five days; read-out: GI MV411 EC50. In outline: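 Cells seeded at 1,000/well in Alpha-MEM with 10% FBS, treated with compound over a 10-point range (top 10 μM) or DMSO. Grown five days at 37° C, 5% CO2; viability by ATPlite luminescence.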
(ATP-based viability assays read luminescence as a measure of living cells.)

Assay [3] addresses T1, WDR5. Kind of assay: Surface Plasmon Resonance (SPR) assay. Format: binding. More on the design: Full length WDR5 with an N-terminal His tag and C-terminal AviTag; His tag (N); made in house; host or cells: E. coli. The conditions noted are these: read-out: SPR Kd. The method in brief:
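Full-length biotinylated WDR5 (N-His, C-AviTag, E. coli) captured (~3000 RU) on streptavidin SA chip; Biacore T200. HBS-EP pH 7.4 plus 5% DMSO running buffer, 40 μl/min.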

Molecules are shown by their SMILES.

As to `C[C@H]1CN(c2cc(F)c(C3=CCCN(c4ncc(F)cn4)C3)c(F)c2NC(=O)c2c[nH]c(=O)cc2C(F)F)CCN1C` [Example 83, (S)-4-(difluoromethyl)-N-(6-(3,4-dimethylpiperazin-1-yl)-2,4-difluoro-3-(1-(5-fluoropyrimidin-2-yl)-1,2,5,6-tetrahydropyridin-3-yl)phenyl)-6-oxo-1,6-dihydropyridine-3-carboxamide], in assay [1], the IC50 (as a rule, the point on the concentration scale where inhibition reaches its midpoint) came out at 15.5 nM. In assay [2], the half-maximal effective concentration (EC50) (commonly the concentration giving half of the maximal effect) is 382 nM. Moreover, in assay [3], the Kd (usually a measure of binding affinity in units of concentration) worked out at 1.15 nM.
Consider `C[C@@H]1CN(c2cc(F)c(C3=CCCN(C(=O)OC4CC(F)(F)C4)C3)c(F)c2NC(=O)c2c[nH]c(=O)cc2C(F)(F)F)C[C@H](C)N1C` [Example 20, 3,3-Difluorocyclobutyl 5-(2,6-difluoro-3-(6-oxo-4-(trifluoromethyl)-1,6-dihydropyridine-3-carboxamido)-4-((3S,5R)-3,4,5-trimethylpiperazin-1-yl)phenyl)-3,6-dihydropyridine-1(2H)-carboxylate], for which, in assay [1], the IC50 worked out at 14.1 nM. Besides, in assay [2], the EC50 is 153 nM. The Kd in assay [3] was found to be 2.06 nM.
The like results for `C[C@H]1CN(c2ccc(-c3c(F)cc(N4CCN(C)[C@@H](C)C4)c(NC(=O)c4c[nH]c(=O)cc4C(F)(F)F)c3F)cn2)CCO1` [Example 171, N-(6-((S)-3,4-dimethylpiperazin-1-yl)-2,4-difluoro-3-(6-((S)-2-methylmorpholino)pyridin-3-yl)phenyl)-6-oxo-4-(trifluoromethyl)-1,6-dihydropyridine-3-carboxamide] were, in that order, 16.1 nM, 51.9 nM and 0.49 nM.
Take `C[C@@H]1CN(c2ncc(-c3c(F)cc(N4CCN(C)[C@@H](C)C4)c(NC(=O)c4ccc(F)cc4C(F)F)c3F)cn2)C[C@@H](C)O1` [Example 158, 2-(Difluoromethyl)-N-(3-(2-((2R,6R)-2,6-dimethylmorpholino)pyrimidin-5-yl)-6-((S)-3,4-dimethylpiperazin-1-yl)-2,4-difluorophenyl)-4-fluorobenzamide]: in assay [1], the IC50 was determined as 14 nM. In addition, the EC50 in assay [2] amounted to 88.3 nM. In addition, the Kd in assay [3] was found to be 0.43 nM.
As for `C[C@@H]1CN(c2ccc(-c3c(F)cc(N4CCN(C)[C@@H](C)C4)c(NC(=O)c4c[nH]c(=O)cc4C(F)(F)F)c3F)cn2)CCO1` [Example 169, N-(6-((S)-3,4-dimethylpiperazin-1-yl)-2,4-difluoro-3-(6-((R)-2-methylmorpholino)pyridin-3-yl)phenyl)-6-oxo-4-(trifluoromethyl)-1,6-dihydropyridine-3-carboxamide], the IC50 in assay [1] amounted to 16.7 nM. Moreover, the EC50 in assay [2] came out at 51.4 nM. In addition, the Kd in assay [3] amounted to 0.99 nM.
`C[C@@H]1CN(c2cc(F)c(-c3cnc(N(C)C)c(F)c3)c(F)c2NC(=O)c2c[nH]c(=O)cc2C(F)(F)F)C[C@H](C)N1C` [Example 63, N-(3-(6-(dimethylamino)-5-fluoropyridin-3-yl)-2,4-difluoro-6-((3S,5R)-3,4,5-trimethylpiperazin-1-yl)phenyl)-6-oxo-4-(trifluoromethyl)-1,6-dihydropyridine-3-carboxamide]: the IC50 in assay [1] stood at 13 nM. In addition, in assay [2], the 50% effective concentration (EC50) was found to be 61.8 nM. Moreover, the Kd in assay [3] was 1.81 nM.
The like results for `CNC(=O)c1ccc(-c2c(F)cc(N3C[C@@H](C)N(C)[C@@H](C)C3)c(NC(=O)c3c[nH]c(=O)cc3C(F)(F)F)c2F)cc1F` [Example 24, 6-Oxo-N-(2,3′,6-trifluoro-4′-(methylcarbamoyl)-4-((3S,5R)-3,4,5-trimethylpiperazin-1-yl)-[1,1′-biphenyl]-3-yl)-4-(trifluoromethyl)-1,6-dihydropyridine-3-carboxamide] were, in that order, 24.9 nM, 101 nM and 3 nM.
The like results for `C[C@@H]1CN(c2ncc(-c3c(F)cc(N4C[C@@H](C)N(C)[C@@H](C)C4)c(NC(=O)c4ccc(F)cc4C(F)F)c3F)cn2)C[C@H](C)O1` [Example 109, 2-(Difluoromethyl)-N-(3-(2-((2S,6R)-2,6-dimethylmorpholino)pyrimidin-5-yl)-2,4-difluoro-6-((3S,5R)-3,4,5-trimethylpiperazin-1-yl)phenyl)-4-fluorobenzamide Formic Acid] were, in that order, 14.4 nM, 7.34 nM and 2.59 nM.
The like results for `C[C@@H]1CN(c2cc(F)c(-c3cnc(N4C[C@H]5CC[C@@H](C4)O5)nc3)c(F)c2NC(=O)c2c[nH]c(=O)cc2C(F)(F)F)C[C@H](C)N1C` [Example 90, N-(3-(2-((R,5S)-8-oxa-3-azabicyclo[3.2.1]octan-3-yl)pyrimidin-5-yl)-2,4-difluoro-6-((3S,5R)-3,4,5-trimethylpiperazin-1-yl)phenyl)-6-oxo-4-(trifluoromethyl)-1,6-dihydropyridine-3-carboxamide] were, in that order, 15 nM, 29.9 nM and 0.89 nM.
Consider `C[C@@H]1CN(c2cc(F)c(C3=CCN(c4ncc(C#N)s4)C3)c(F)c2NC(=O)c2c[nH]c(=O)cc2C(F)(F)F)C[C@H](C)N1C` [Example 150, N-(3-(1-(5-cyanothiazol-2-yl)-2,5-dihydro-1H-pyrrol-3-yl)-2,4-difluoro-6-((3S,5R)-3,4,5-trimethylpiperazin-1-yl)phenyl)-6-oxo-4-(trifluoromethyl)-1,6-dihydropyridine-3-carboxamide], for which, in assay [1], the IC50 is 12.9 nM. In addition, the EC50 in assay [2] amounted to 48.4 nM. The equilibrium dissociation constant (Kd) in assay [3] was determined as 0.53 nM.
Take `C[C@@H]1CN(c2cc(F)c(C3=CCCN(c4ncc(F)cn4)C3)c(F)c2NC(=O)c2c[nH]c(=O)cc2C(F)(F)F)C[C@H](C)N1C` [Example 146, N-(2,4-difluoro-3-(1-(5-fluoropyrimidin-2-yl)-1,2,5,6-tetrahydropyridin-3-yl)-6-((3S,5R)-3,4,5-trimethylpiperazin-1-yl)phenyl)-6-oxo-4-(trifluoromethyl)-1,6-dihydropyridine-3-carboxamide]: the IC50 in assay [1] stood at 21 nM. Besides, the EC50 in assay [2] amounted to 239 nM. Moreover, the Kd in assay [3] was found to be 1.65 nM.
The like results for `C[C@@H]1CN(c2ncc(-c3c(F)cc(N4CCN(C)[C@@H](C)C4)c(NC(=O)c4ccc(F)cc4C(F)(F)F)c3F)cn2)C[C@H](C)O1` [Example 66, N-(3-(2-((2S,6R)-2,6-dimethylmorpholino)pyrimidin-5-yl)-6-((S)-3,4-dimethylpiperazin-1-yl)-2,4-difluorophenyl)-4-fluoro-2-(trifluoromethyl)benzamide Formic Acid] were, in that order, 14.1 nM, 45.8 nM and 2.02 nM.
The like results for `C[C@H]1CN(c2cc(F)c(C3=CCCN(C(=O)OC4CC(F)(F)C4)C3)c(F)c2NC(=O)c2c[nH]c(=O)cc2C(F)(F)F)CCN1C` [Example 46, 3,3-Difluorocyclobutyl (S)-5-(4-(3,4-dimethylpiperazin-1-yl)-2,6-difluoro-3-(6-oxo-4-(trifluoromethyl)-1,6-dihydropyridine-3-carboxamido)phenyl)-3,6-dihydropyridine-1(2H)-carboxylate] were, in that order, 14.9 nM, 607 nM and 2.97 nM.
